Activity calls are given as the source filed them. The rule behind the calls is not given here.
Tests used:
[1] = Biodistribution in BALB/c mouse liver at 50 mg/kg, ip measured after 1 hr; type: ADME, organism-based; settings: in vivo
[2] = Biodistribution in BALB/c mouse kidney assessed as 5-FU release at 50 mg/kg, ip measured after 1 hr; type: ADME, organism-based; settings: in vivo
[3] = Drug metabolism in BALB/c mouse assessed as release of 5-FU in blood at 50 mg/kg, iv measured after 2 hrs by UPLC-MS/MS analysis; type: ADME, organism-based; settings: in vivo
[4] = Half life of the compound in 5 mM GSH; type: physicochemical
[5] = Biodistribution in BALB/c mouse stomach assessed as 5-FU release at 50 mg/kg, ip measured after 1 hr; type: ADME, organism-based; settings: in vivo
[6] = Biodistribution in BALB/c mouse colon at 50 mg/kg, ip measured after 1 hr; type: ADME, organism-based; settings: in vivo
[7] = Stability in human plasma assessed as half life measured upto 48 hrs by RP-HPLC analysis; type: ADME, cell-free
[8] = system: HCT-116; test: Cytotoxicity against human HCT-116 cells assessed as reduction in cell viability measured after 48 hrs by SRB assay; type: functional, cell-based; settings: HCT-116, 48 h
[9] = system: HT-29; test: Cytotoxicity against human HT-29 cells assessed as reduction in cell viability measured after 48 hrs in presence of 5 mM GSH by SRB assay; type: functional, cell-based; settings: HT-29, 48 h
[10] = Biodistribution in BALB/c mouse stomach at 50 mg/kg, ip measured after 1 hr; type: ADME, organism-based; settings: in vivo
[11] = Drug metabolism in 5 mM GSH assessed as 5-FU release after 48 hrs; type: ADME
[12] = Biodistribution in BALB/c mouse heart at 50 mg/kg, ip measured after 1 hr; type: ADME, organism-based; settings: in vivo
[13] = system: Colon cancer cell line; test: Antitumour activity against human colorectal cancer cells xenografted in BALB/c mouse assessed as tumour suppression at 50 mg/kg, ip administered once every 3 days for 3 weeks; type: functional, organism-based
[14] = Tmax in BALB/c mouse at 50 mg/kg, ip by LC-MS/MS analysis; type: ADME, organism-based; settings: in vivo
[15] = Toxicity in BALB/c mouse xenografted with human colorectal cancer cells assessed as reduction in body weight at 50 mg/kg, ip administered once every 3 days for 3 weeks; type: organism-based; set-up: scale not given: the % may be the effect or the level left; settings: in vivo, 504 h
[16] = Drug uptake in BALB/c mouse blood at 50 mg/kg, iv measured after 45 mins by UPLC-MS/MS method; type: ADME, organism-based; settings: in vivo, 0.75 h
[17] = system: HT-29; test: Cytotoxicity against human HT-29 cells assessed as reduction in cell viability measured after 48 hrs by SRB assay; type: functional, cell-based; settings: HT-29, 48 h
[18] = Biodistribution in BALB/c mouse colon assessed as 5-FU release at 50 mg/kg, ip measured after 1 hr; type: ADME, organism-based; settings: in vivo
[19] = Drug uptake in BALB/c mouse blood at 50 mg/kg, iv measured after 30 mins by UPLC-MS/MS method; type: ADME, organism-based; settings: in vivo, 0.5 h
[20] = Drug uptake in BALB/c mouse blood at 50 mg/kg, iv measured after 4 hrs by UPLC-MS/MS method; type: ADME, organism-based; settings: in vivo
[21] = Drug degradation in 5 uM GSH after 48 hrs; type: ADME; settings: read-out: Drug degradation
[22] = system: HCT-116; test: Cytotoxicity against human HCT-116 cells assessed as reduction in cell viability measured after 48 hrs in presence of 5 mM GSH by SRB assay; type: functional, cell-based; settings: HCT-116, 48 h
[23] = system: NHDF; test: Cytotoxicity against NHDF assessed as reduction in cell viability measured after 48 hrs by SRB assay; type: cell-based; settings: Homo sapiens
[24] = Stability of compound at pH >= 7; type: physicochemical
[25] = Stability of compound at pH 4 to 5; type: physicochemical; settings: buffer
[26] = Dissociation constant, pKa of compound; type: physicochemical
[27] = system: HT-29; test: Cytotoxicity against human HT-29 cells assessed as reduction in cell viability treated with 5 mM GSH measured after 48 hrs in presence of 5-FU by SRB assay; type: functional, cell-based; settings: HT-29, 48 h
[28] = system: COS-7; test: Inhibition of GLUT1 in African green monkey COS-7 cells assessed as reduction in 2-NBDG uptake at 50 to 100 uM incubated for 90 mins by fluorescence microplate reader analysis; type: cell-based; settings: Chlorocebus aethiops, dose 50-100 µM
[29] = system: HT-29; test: Cytotoxicity against human HT-29 cells assessed as reduction in cell viability measured after 48 hrs in presence of 5-FU by SRB assay; type: functional, cell-based; settings: HT-29, 48 h
[30] = system: HCT-116; test: Cytotoxicity against human HCT-116 cells assessed as reduction in cell viability measured after 48 hrs in presence of 5-FU by SRB assay; type: functional, cell-based; settings: HCT-116, 48 h
[31] = system: HCT-116; test: Cytotoxicity against human HCT-116 cells assessed as reduction in cell viability treated with 5 mM GSH measured after 48 hrs in presence of 5-FU by SRB assay; type: functional, cell-based; settings: HCT-116, 48 h
[32] = system: Colon cancer cell line; test: Synergistic antitumour activity against human colorectal cancer cells xenografted in BALB/c mouse assessed as reduction in tumour size at 30 mg/kg, ip administered once every 3 days for 3 weeks in presence of 10 mg/kg 5-FU; type: functional, organism-based
[33] = Biodistribution in BALB/c mouse spleen at 9.5 mg/kg, ip measured after 1 hr; type: ADME, organism-based; settings: in vivo
[34] = Biodistribution in BALB/c mouse kidney at 9.5 mg/kg, ip measured after 1 hr; type: ADME, organism-based; settings: in vivo
[35] = Biodistribution in BALB/c mouse stomach at 9.5 mg/kg, ip measured after 1 hr; type: ADME, organism-based; settings: in vivo

## O=C(CCCSSCCOCCOCCOc1cc(O)c(C(=O)CCc2ccc(O)cc2)c(O)c1)OCn1cc(F)c(=O)[nH]c1=O
[1]
  Drug uptake: Active
[2]
  Drug uptake: Active
[3]
  Drug metabolism: Metabolite_Detected
[4]
  t1/2: 4 h
[5]
  Drug uptake: Active
[6]
  Drug uptake: Active
[7]
  half-life: 13 h
[8]
  IC50: 21.2 µM
[9]
  IC50: 3.8 µM
[10]
  Drug uptake: Active
[11]
  Drug metabolism: Dose-Dependent Effect
[12]
  Drug uptake: Active
[13]
  Activity: Active
[14]
  Tmax: 0.75 h
[15]
  Activity: Non-Toxic
[16]
  Drug uptake: Active
[17]
  IC50: 19.6 µM
[18]
  Drug uptake: Active
[19]
  Drug uptake: Not Active
[20]
  Drug uptake: Active
[21]
  degraded at 48 h: 30%
[22]
  IC50: 10.5 µM
[23]
  IC50: 90 µM

## O=C(CCCc1cn(CCOCCOCCOc2cc(O)c(C(=O)CCc3ccc(O)cc3)c(O)c2)nn1)OCn1cc(F)c(=O)[nH]c1=O
[7]
  half-life: 3.6 h
[8]
  IC50: > 100 µM
[17]
  IC50: 85 µM
[24]
  Stability: Unstable
[25]
  Stability: Stable
[26]
  pKa: 8.5

## O=C(CCc1ccc(O)cc1)c1c(O)cc(OCCOCCOCCS)cc1O[C@@H]1O[C@H](CO)[C@@H](O)[C@H](O)[C@H]1O
[27]
  IC50: 8.58 µM
[28]
  inhibition: inactive
[29]
  IC50: 21 µM
[8]
  IC50: > 100 µM
[9]
  IC50: > 100 µM
[30]
  IC50: 21.9 µM
[17]
  IC50: > 100 µM
[31]
  IC50: 13.6 µM
[22]
  IC50: > 100 µM

## O=C(CCCc1cn(CCOCCOCCOc2cc(O)c(C(=O)CCc3ccc(O)cc3)c(O[C@@H]3O[C@H](CO)[C@@H](O)[C@H](O)[C@H]3O)c2)nn1)OCn1cc(F)c(=O)[nH]c1=O
[8]
  IC50: > 100 µM
[17]
  IC50: > 100 µM

## O=C(CCc1ccc(O)cc1)c1c(O)cc(OCCOCCOCCS)cc1O
[27]
  IC50: 3.03 µM
[28]
  inhibition: inactive
[29]
  IC50: 10.3 µM
[8]
  IC50: 15.5 µM
[32]
  Activity: Active
[9]
  IC50: 24.2 µM
[30]
  IC50: 10.4 µM
[17]
  IC50: 29.1 µM
[31]
  IC50: 8.73 µM
[22]
  IC50: 15.9 µM

## O=C(CCCCCN1C(=O)CC(SCCOCCOCCOc2cc(O)c(C(=O)CCc3ccc(O)cc3)c(O[C@@H]3O[C@H](CO)[C@@H](O)[C@H](O)[C@H]3O)c2)C1=O)OCn1cc(F)c(=O)[nH]c1=O (some centres not stated)
[8]
  IC50: 97.4 µM
[9]
  IC50: 93.6 µM
[17]
  IC50: > 100 µM
[22]
  IC50: > 100 µM

## O=C(CCCCCN1C(=O)CC(SCCOCCOCCOc2cc(O)c(C(=O)CCc3ccc(O)cc3)c(O)c2)C1=O)OCn1cc(F)c(=O)[nH]c1=O (configuration not stated)
[7]
  half-life: 0.8 h
[8]
  IC50: 75 µM
[9]
  IC50: 86.9 µM
[17]
  IC50: 43.7 µM
[22]
  IC50: 82.8 µM
[26]
  pKa: 8.5

## O=c1[nH]cc(F)c(=O)[nH]1 [FLUOROURACIL]
[10]
  Drug uptake: Active
[13]
  Activity: Active
[15]
  Activity: 10%
[33]
  Drug uptake: Active
[34]
  Drug uptake: Active
[23]
  IC50: 70.4 µM
[35]
  Drug uptake: Active

## O=C(CCCSSCCOCCOCCOc1cc(O)c(C(=O)CCc2ccc(O)cc2)c(O[C@@H]2O[C@H](CO)[C@@H](O)[C@H](O)[C@H]2O)c1)OCn1cc(F)c(=O)[nH]c1=O
[8]
  IC50: 54.9 µM
[9]
  IC50: 8 µM
[17]
  IC50: 59.8 µM
[22]
  IC50: 23.8 µM

## O=C(CCc1ccc(O)cc1)c1c(O)cc(O)cc1O[C@@H]1O[C@H](CO)[C@@H](O)[C@H](O)[C@H]1O
[28]
  inhibition: inactive
